Reference: US11214624B2, “Method to prevent cancer metastasis and inhibit inflammation by inhibition of p68 interaction with calmodulin” (Proda Biotech LLC, priority 2012, dated 2022)
“Also recorded” adds a separate entry of the source. No end group written: not given here. TAT = TAT cell-permeable sequence

What was measured:
E-cadherin and vimentin = assay: PDGF stimulated EMT, cellular levels of EMT markers; format: cell-based
Description: We also examined whether the peptides would abolish PDGF stimulated EMT by analyzing the cellular levels of EMT markers, E-cadherin and vimentin. […] The effect of the PepIQ peptide on cancer metastasis was confirmed by an additional treatment using the PepIQ and a control peptide with a scrambled sequence (PepScram) (FIG. 6, Table 2, Table 4).

SW620 xenograft [1] = assay: Metastasis inhibition of SW620 xenograft (human CK-18 RT-PCR of spleen extracts); format: in vivo, nude mice; conditions: for Effect on SW620 metastasis: peptide 2 mg/kg i.p. daily for two weeks
Experimental: (§1) Metastasis inhibition of SW620 xenograft and orthotopic 4T1 tumors: All animal experiments were carried out in accordance with the guidelines of IACUC of Georgia State University. Nude mice or Balb/c mice (6 to 7 weeks old, Harlan Laboratory) were subcutaneously or orthotopically injected with 5×10^6 SW620 or 2×10^6 4T1 cells. Peptides at appropriate doses were administered to the tumor bearing mice by intraperitoneal (i.p.) injection at appropriate time intervals. Tumor formation and volumes were assessed every 2 days. Tumor volumes were measured by two perpendicular diameters of the tumors over a 4-week time course with the formula 4p/3×(width/2)^2×(length/2). The tumors and organs were collected and weighed at the end of the experiments. Tissue sections were prepared from harvested tumors and organs. Tissue sections were analyzed by either H&E or immune staining. For metastasis analyses of SW620 tumors, tissue extracts were prepared from spleens, total RNAs were extracted from the tissue extracts. RT-PCRs were performed with the isolated RNAs. For metastasis of 4T-1 cells, lung and liver were inspected.
The peptides were used to treat a nude mice xenograft of SW620 cells at dose of 2 mg/kg (i.p. daily dose for two weeks). SW620 cells were used because they contain high p68 Y593 phosphorylation (Carter, C L, et al. Oncogene 29:5427-5436 (2010); Yang, L, et al. Mol Cancer Res 3:355-363 (2005)). It is well established that the xenograft of SW620 will metastasize to lymph nodes, and the metastasis can be analyzed by examination of SW620 cells in the spleen (Liu, K, et al. J Immunol 171:4164-4174 (2003)).

[2] = system: Mouse breast cancer 4T1 cells; assay: Orthotopic 4T1 tumor metastasis model; format: in vivo, Balb/c mouse
Experimental: as §1
The PepIQ was very effective in inhibiting cancer metastasis with xenograft model of SW620 cells, indicating a potential application for metastasis intervention using the peptide or its derivatives. Thus, the effects of the peptide on metastasis in another cancer model was tested. Mouse breast cancer 4T1 cells were implanted into mammary gland of Balb/c mouse. Four days post-tumor implantation, the mice were treated by the PepIQ, the control peptide (PepScram), and buffer by 2 mg/kg daily dose for 14 days via i.p. injection. The mice were sacrificed at 26 days after tumor implantation. The primary tumors and major metastasis organs, lungs and liver, were collected and examined. […] The numbers of visible metastatic nodules in lung in the PepIQ treated group were much less and the nodules were much smaller than those in the PepScram and buffer treated groups (FIGS. 5B-5D). […] To test whether the PepIQ also affected the cell migration of 4T1 cells, cell migration assays were conducted.

[3] = molecular target: T1, Myosin-II-CaM interaction (Homo sapiens, UniProt P0DP23); assay: Myosin-CaM co-immunoprecipitation in SW480 cell extracts; format: cell-based; conditions: SW480 cells with/without multiple scratch-wound
T1 construct: endogenous in cells; host or cells: SW480
Experimental: (§2) To test whether the PepIQ peptide disrupted the interaction of IQGAP1 or Myosin-II with CaM, cell extracts of SW480 cells that were treated by the PepIQ with/without multiple scratch-wound were co-immunoprecipitated using the antibody against CaM. […] The results also excluded a possibility that the PepIQ sequestered all CaM in the cells therefore inhibited cell migration. Thus, these experiments supported the notion that cell migration strengthened the p68-CaM interaction, and the IQ peptide disrupted the p68-CaM interaction induced by migration, thereby inhibiting cell migration.

IQGAP1-CaM interaction = molecular target: T2, IQGAP1-CaM interaction (Homo sapiens, UniProt P0DP23); assay: IQGAP1-CaM co-immunoprecipitation in SW480 cell extracts; format: cell-based; conditions: SW480 cells with/without multiple scratch-wound
T2 construct: endogenous in cells; host or cells: SW480
Experimental: as §2

4T1 cells = assay: 4T1 cell migration (Boyden chamber and scratch-wound assays); format: cell-based, mouse
Experimental: Scratch-wound treatments: A scratch or multiple scratches using pipette tips were introduced into a 6 well cell culture plate. The cells were further cultured under serum starvation for 30 minutes, and were subsequently cultured for an additional indicated time. The scratch-treated cells were either directly visualized by microscopes or the cells were fixed and subsequently examined by immunostaining. Alternatively, the cells were collected and lysized. The prepared cellular extracts were then used for other analyses. Boyden chamber assay: QCM™ 24-Well Fluorimetric Cell Migration Assay kit was used to measure the migration of SW480 cells. The test cells were first treated under the different conditions in regular cell culture plates. The treated cells were re-suspended into optimum medium (without serum) and seeded into the inner chamber of the migration assay kit. The L-15 culture medium with 10% FBS was added to the outer chambers. After overnight incubation, medium in the inner chamber was removed and the cells attached to the outer bottom side were detached using the cell detachment buffer (included in the kit). The detached cells were then lysed using the cell lysis buffer (included in the kit). The amounts of the migrated cells were determined by measuring the fluorescence using λex=485 nm and λem=535 nm. The migration of the control cells with p68 knockdown was defined as 1. […]

SW480 cells = assay: Boyden chamber cell migration assay, SW480; format: cell-based
Experimental: Boyden chamber assay: QCM™ 24-Well Fluorimetric Cell Migration Assay kit was used to measure the migration of SW480 cells. The test cells were first treated under the different conditions in regular cell culture plates. The treated cells were re-suspended into optimum medium (without serum) and seeded into the inner chamber of the migration assay kit. The L-15 culture medium with 10% FBS was added to the outer chambers. After overnight incubation, medium in the inner chamber was removed and the cells attached to the outer bottom side were detached using the cell detachment buffer (included in the kit). The detached cells were then lysed using the cell lysis buffer (included in the kit). The amounts of the migrated cells were determined by measuring the fluorescence using λex=485 nm and λem=535 nm. The migration of the control cells with p68 knockdown was defined as 1.

p68 and CaM interaction = molecular target: T3, p68 and CaM interaction (Homo sapiens, UniProt P0DP23); assay: CaM beads pull-down of p68; format: binding; conditions: no migration stimuli
T3 construct: purchased Abcam; host or cells: p68 comes from SW480 whole cell lysate (endogenous)
Experimental: CaM beads pull-down assay was used to determine whether the PepIQ peptide affected the p68 and CaM interaction. […] Thus, the p68-CaM interaction was examined under migration stimuli by co-immunoprecipitation with extracts of SW480 cells using an antibody against CaM. […] Similarly, there was a strong increase in the p68 and CaM co-precipitation upon the EGF treatment. Calmodulin beads pull-down: Whole cell lysate from SW480 cells was prepared as previously described (Yang L, et al. Cell 127:139-155 (2006); Yang L, et al. Mol Cancer Res 3:355-363 (2005)). The agarose beads conjugated with recombinant calmodulin (Abcam) were pre-washed with Ca2+ containing buffer (2 mM CaCl2, 50 mM NaCl in 50 mM Tris-HCl pH 7.5) or EGTA containing buffer (5 mM EGTA, 50 NaCl in 50 mM Tris-HCl pH 7.5). After washing, the beads were incubated with the whole cell lysates in the Ca^2+ containing or EGTA containing buffer. The beads were extensively washed after incubation. Finally, 2× SDS-loading buffer were added to the beads and the beads were heated to 85° C. for 10 minutes. The proteins that were pulled down by the CaM beads were analyzed by 10% SDS PAGE and subsequent immunoblot.

[4] = system: Rhodamine labeled microtubules; assay: Microtubule gliding assay; format: biochemical; design: % of gliding microtubules (n = 50): dose or concentration left out as unconfirmed; conditions: for % of gliding microtubules (n = 50): only MTs with gliding speed >0.025 μm/min counted; for Mean gliding speed: only MTs with motility >0.05 μM/min
Experimental: The slide was blocked with the blocking buffer. For the slide loaded with HA-p68, 10 μl of calmodulin with 0.5 mM of Ca^2+ was added to the slide and was incubated for 10 minutes. After loading the slide was washed with the Ca^2+ containing wash buffer to remove the unbound proteins. The prepared Rodamine labeled microtubules were then loaded onto the slide. The same Ca^2+ containing wash buffer was used to remove unbound microtubules. The movement of microtubules was then recorded by the confocal microscope.
HA-p68 was purified from SW480 cells with/without scratch-wound treatment and attached to a glass slide. Rhodamine-labeled microtubule was then added to the glass slide. Migration of the microtubule in the presence and absence of ATP was then recorded.

p68-CaM interaction = molecular target: T4, p68-CaM interaction (Homo sapiens, UniProt P0DP23); assay: p68-CaM co-immunoprecipitation in scratch-wound treated SW480 cells; format: cell-based; conditions: co-immunoprecipitation with antibody against CaM
T4 construct: co-immunoprecipitation with extracts of SW480 cells using an antibody against CaM; endogenous in cells; host or cells: SW480
Experimental: Scratch-wound treatments: A scratch or multiple scratches using pipette tips were introduced into a 6 well cell culture plate. The cells were further cultured under serum starvation for 30 minutes, and were subsequently cultured for an additional indicated time. The scratch-treated cells were either directly visualized by microscopes or the cells were fixed and subsequently examined by immunostaining. Alternatively, the cells were collected and lysized. The prepared cellular extracts were then used for other analyses.
CaM beads pull-down assay was used to determine whether the PepIQ peptide affected the p68 and CaM interaction. […] Thus, the p68-CaM interaction was examined under migration stimuli by co-immunoprecipitation with extracts of SW480 cells using an antibody against CaM. […] Similarly, there was a strong increase in the p68 and CaM co-precipitation upon the EGF treatment.
To test whether the PepIQ abolished the enhancement of the p68-CaM interaction induced by cell migration, the p68-CaM interaction was probed in cell lysate of SW480 cells that were treated by the peptide.

SW620 xenograft [5] = assay: Metastasis inhibition of SW620 xenograft (human CK-18 RT-PCR of spleen extracts); format: in vivo, nude mice
[6] = Table 1, TAT-fused peptides 2 mg/kg i.p. daily for two weeks, mice with metastasis/mice in group
[7] = vs PepScram and buffer treated groups

PepY593: p68 aa 584-602 peptide MHNGMNQQAYAYPATAAAP (SEQ ID NO:2), without Y593 phosphorylation, TAT-fused at N-terminus; control peptide ({TAT}-MHNGMNQQAYAYPATAAAP)
Levels of E-cadherin and vimentin (E-cadherin and vimentin): not significantly affected
Metastasis rate (SW620 xenograft [1]; [6]): 5/5

PepIQ (FASGQINTFVSRGTPGYATGMHNGMNQQAPYAYPATAAAPFVSAGIQTSFRTGNPTGAYG)
Cancer metastasis in the lung (mice affected) ([2]; 2 mg/kg daily for 14 days i.p.): 3 out of 4
Mice with no micrometastasis lesion in liver tissue sections ([2]; 2 mg/kg daily for 14 days i.p.): two out of four
Average numbers of micrometastasis lesions in liver ([2]; 4 fields from three tissue sections per liver, vs buffer and PepScram groups): substantially less
Numbers of visible metastatic nodules in lung [2, 7]: much less
Size of metastatic nodules in lung [2, 7]: much smaller
Size of micrometastasis lesions in liver ([2]; vs control groups): substantially smaller
Levels of E-cadherin and vimentin (E-cadherin and vimentin): not significantly affected
Myosin-CaM interaction [3]: not affected
IQGAP1-CaM interaction (IQGAP1-CaM interaction): not affected
Metastasis rate (SW620 xenograft [1]; [6]): 1/5
Metastasis rate (SW620 xenograft [1]; Table 2, additional treatment, PepIQ vs scrambled control peptide): 2/5
Effect on SW620 metastasis (SW620 xenograft [1]): largely diminished; also recorded: inhibited the metastasis
Cell migration of 4T1 cells (4T1 cells): dramatically reduced
Cell migration (SW480 cells; SW480 cells treated with peptide): almost completely inhibited
Change in p68-CaM interaction (p68 and CaM interaction): did not lead to dramatic changes

PepPhoY593: p68 aa 584-602 peptide with Y593 phosphorylation, MHNGMNQQA[p]YAYPATAAAP (SEQ ID NO:3), TAT-fused at N-terminus
Levels of E-cadherin and vimentin (E-cadherin and vimentin): decrease in vimentin and an increase in Ecadherin
Metastasis rate (SW620 xenograft [1]; [6]): 3/5
Effect on SW620 metastasis (SW620 xenograft [1]): almost no effects; also recorded: no effects on cancer metastasis

p68/Ca^2+-CaM: HA-p68 immunopurified from scratch-wound treated SW480 cells, in the presence of CaM and Ca2+
Maximum gliding speed ([4]; ATP): 0.52 ± 0.14 μm/min
% of gliding microtubules (n = 50) ([4]; ATP): 74.15 ± 1.20%
Mean gliding speed ([4]; ATP): 0.16 ± 0.12 μm/min
Maximum gliding speed ([4]; no ATP): 0.01 ± 0.00 μm/min
% of gliding microtubules (n = 50) ([4]; no ATP): 5.79 ± 3.13%
Mean gliding speed ([4]; no ATP): 0.00 ± 0.00 μm/min

eGFP-IQ: fusion protein containing amino acids 549-568 of p68 fused to the C-terminus of eGFP, expressed in SW620/SW480 cells (FVSAGIQTSFRTGNPTGTYQ; also: fused to C-terminus of eGFP)
Increase in the p68-CaM interaction upon multiple scratch wound (p68-CaM interaction): not dramatically strengthened
Cell migration (SW480 cells; stable expression in SW480 cells): dramatically inhibited
Metastasis rate (SW620 xenograft [5]; Table 3, xenograft of SW620 cells expressing the protein): 2/6
Effect on cancer metastasis of the SW620 xenograft (SW620 xenograft [5]; protein expressed in SW620 cells): greatly reduced
